Measurements as given in patent publication US20090298786A1, “METHODS OF TREATING VIRAL INFECTIONS WITH ANTHRACYCLINE ANTIBIOTICS” (priority 2007, published 2009).

molecular target: T1, HCV helicase (helicase domain of NS3 protein) (UniProt P27958); assay: Fluorometric (FRET) antihelicase activity assay; type: biochemical, hepatitis C virus (HCV); conditions: concentration inhibiting 50% of helicase activity; 10 nM enzyme pre-incubated 15 min with derivative, unwinding at 30° C. for 60 min
T1 construct: The helicase domain of NS3 protein was expressed in a baculovirus system in HF insect cell line; fused on or other part: Histidine tag, inferred from the Talon cobalt column purification ('histidine repetitions')
T1 sequence (P27958 1027-1657): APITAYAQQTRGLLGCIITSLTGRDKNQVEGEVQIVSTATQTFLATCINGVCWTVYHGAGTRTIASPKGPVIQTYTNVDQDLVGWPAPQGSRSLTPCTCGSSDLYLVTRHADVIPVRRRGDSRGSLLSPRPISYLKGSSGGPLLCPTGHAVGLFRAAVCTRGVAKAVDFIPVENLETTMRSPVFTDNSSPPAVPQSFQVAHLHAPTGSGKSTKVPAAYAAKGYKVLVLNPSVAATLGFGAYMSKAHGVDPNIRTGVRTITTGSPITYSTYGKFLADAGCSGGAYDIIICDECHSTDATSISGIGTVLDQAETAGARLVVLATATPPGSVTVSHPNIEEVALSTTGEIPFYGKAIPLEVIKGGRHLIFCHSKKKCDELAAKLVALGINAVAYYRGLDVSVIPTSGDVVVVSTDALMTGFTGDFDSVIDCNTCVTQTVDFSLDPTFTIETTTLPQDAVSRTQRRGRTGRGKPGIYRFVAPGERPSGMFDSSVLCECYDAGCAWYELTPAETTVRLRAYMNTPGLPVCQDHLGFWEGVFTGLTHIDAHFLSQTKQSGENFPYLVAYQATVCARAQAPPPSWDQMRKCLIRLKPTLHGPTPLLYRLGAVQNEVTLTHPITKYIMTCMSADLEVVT
Source text: A reaction takes place on a 96- or 384-well microtitration plate and a course of the reaction is observed in real time.
The helicase domain of NS3 protein was expressed in a baculovirus system in HF insect cell line.
In this assay, FAM fluorescence is quenched by fluorescence energy transfer (FRET) to the BHQ molecule, while unwinding of double-stranded DNA structure leads to decrease of FRET phenomenon and increase of FAM fluorescence signal. The assay allows for examining a large number of samples, i.e., different helicase inhibitors at various concentrations and with many repetitions, in standardized conditions. The reaction is conducted in a microtitration plate. The reaction process is observed in real time.
The enzyme (10 nM) was pre-incubated with the tested derivatives dissolved in DMSO (0.005 to 20 μM concentration) without ATP for 15 min at room temperature. The reaction of DNA unwinding was started by addition of ATP and was carried out at 30° C. for 60 min in a Synergy HTi (Biotek) fluorometer. […] Fluorescence was measured every 2 mins.
The enzyme activity was calculated as the initial reaction velocity from the linear part of reaction curve (fluorescence growth as a function of time) using a linear regression method. Inhibition was calculated as comparison of activity of the helicase incubated with inhibitor to activity of the helicase incubated without inhibitor, but with a proper concentration of DMSO, expressed in percent.

Work on COc1cccc2c1C(=O)c1c(O)c3c(c(O)c1C2=O)CC(O)(C(C)=O)CC3OC1CC(N=CN2CCN(C)CC2)C(O)C(C)O1 (stereo not shown) [Derivative 76] yielded an IC50 of 0.77 µM.

same assay, conditions: concentration inhibiting 50% of helicase activity; 10 nM enzyme pre-incubated 15 min with derivative, unwinding at 30° C. for 60 min; read-out: IC50

Going from COc1cccc2c1C(=O)c1c(O)c3c(c(O)c1C2=O)CC(O)(C(C)=O)CC3OC1CC(N=CN2CCCC2)C(O)C(C)O1 (stereo not shown) [Derivative 1] to COc1cccc2c1C(=O)c1c(O)c3c(c(O)c1C2=O)CC(O)(C(C)=O)CC3OC1CC(N=CN2CCCCC2)C(O)C(C)O1 (stereo not shown) [Derivative 5], the IC50 rises from 1.84 µM to 3.5 µM (1.9-fold). The first is the more potent here.

COc1cccc2c1C(=O)c1c(O)c3c(c(O)c1C2=O)CC(O)(C(C)=O)CC3OC1CC(N=CN2CCOCC2)C(O)C(C)O1 (stereo not shown) [Derivative 3] and COc1cccc2c1C(=O)c1c(O)c3c(c(O)c1C2=O)CC(O)(C(=O)CO)CC3OC1CC(N=CN2CCOCC2)C(O)C(C)O1 (stereo not shown) [Derivative 37] are within 1.5-fold of each other in IC50: 3.17 µM for the first, 2.12 µM for the second.

First: COc1cccc2c1C(=O)c1c(O)c3c(c(O)c1C2=O)CC(O)(C(C)=O)CC3OC1CC(N=CN2CCCCCC2)C(O)C(C)O1 (stereo not shown) [Derivative 7]
Second: COc1cccc2c1C(=O)c1c(O)c3c(c(O)c1C2=O)CC(O)(C(C)=O)CC3OC1CC(N=CN2CCCCC2)C(O)C(C)O1 (stereo not shown) [Derivative 73]
The IC50 of the first is 1.8-fold lower: 1.33 µM for the first, 2.39 µM for the second. The first is the more potent here.

Compared with COc1cccc2c1C(=O)c1c(O)c3c(c(O)c1C2=O)CC(O)(C(C)=O)CC3OC1CC(N=CN2CCN(C)CC2)C(O)C(C)O1 (stereo not shown) [Derivative 8], COc1cccc2c1C(=O)c1c(O)c3c(c(O)c1C2=O)CC(O)(C(=O)CO)CC3OC1CC(N=CN2CCN(C)CC2)C(O)C(C)O1 (stereo not shown) [Derivative 42] is 2-fold lower in IC50: 1.96 µM for the first, 0.98 µM for the second. The second is the more potent here.

CCN(C=NC1CC(OC2CC(O)(C(C)=O)Cc3c(O)c4c(c(O)c32)C(=O)c2c(OC)cccc2C4=O)OC(C)C1O)CC (stereo not shown) [Derivative 12] and CCN(C=NC1CC(OC2CC(O)(C(=O)CO)Cc3c(O)c4c(c(O)c32)C(=O)c2c(OC)cccc2C4=O)OC(C)C1O)CC (stereo not shown) [Derivative 46] are within 1.5-fold of each other in IC50: 1.58 µM for the first, 1.32 µM for the second.

First: COc1cccc2c1C(=O)c1c(O)c3c(c(O)c1C2=O)CC(O)(C(C)=O)CC3OC1CC(N=C(C)N2CCCC2)C(O)C(C)O1 (stereo not shown) [Derivative 18]
Second: COc1cccc2c1C(=O)c1c(O)c3c(c(O)c1C2=O)CC(O)(C(C)=O)CC3OC1CC(N=C(C)N2CCCCC2)C(O)C(C)O1 (stereo not shown) [Derivative 22]
The IC50 of the first is 1.7-fold lower: 0.41 µM for the first, 0.7 µM for the second. The first is the more potent here.

Compared with COc1cccc2c1C(=O)c1c(O)c3c(c(O)c1C2=O)CC(O)(C(C)=O)CC3OC1CC(N=C(C)N2CCN(C)CC2)C(O)C(C)O1 (stereo not shown) [Derivative 25], COc1cccc2c1C(=O)c1c(O)c3c(c(O)c1C2=O)CC(O)(C(=O)CO)CC3OC1CC(N=C(C)N2CCN(C)CC2)C(O)C(C)O1 (stereo not shown) [Derivative 59] is 15-fold lower in IC50: 6.25 µM for the first, 0.42 µM for the second. The second is the more potent here.

First: COc1cccc2c1C(=O)c1c(O)c3c(c(O)c1C2=O)CC(O)(C(C)=O)CC3OC1CC(N=C(C)N2CCc3ccccc32)C(O)C(C)O1 (stereo not shown) [Derivative 27]
Second: COc1cccc2c1C(=O)c1c(O)c3c(c(O)c1C2=O)CC(O)(C(C)=O)CC3OC1CC(N=CN2CCc3ccccc32)C(O)C(C)O1 (stereo not shown) [Derivative 78]
The IC50 of the first is 25-fold higher: 11.3 µM for the first, 0.45 µM for the second.

Going from COc1cccc2c1C(=O)c1c(O)c3c(c(O)c1C2=O)CC(O)(C(=O)CO)CC3OC1CC(N=CN2CCCC2)C(O)C(C)O1 (stereo not shown) [Derivative 35] to COc1cccc2c1C(=O)c1c(O)c3c(c(O)c1C2=O)CC(O)(C(=O)CO)CC3OC1CC(N=CN2CCCCC2)C(O)C(C)O1 (stereo not shown) [Derivative 39], the IC50 rises from 0.55 µM to 2.84 µM (5.2-fold). The first is the more potent here.

First: COc1cccc2c1C(=O)c1c(O)c3c(c(O)c1C2=O)CC(O)(C(=O)CO)CC3OC1CC(N=CN2CCCCCC2)C(O)C(C)O1 (stereo not shown) [Derivative 41]
Second: COc1cccc2c1C(=O)c1c(O)c3c(c(O)c1C2=O)CC(O)(C(=O)CO)CC3OC1CC(N=CN2CCCCC2)C(O)C(C)O1 (stereo not shown) [Derivative 109]
The IC50 of the first is 2.1-fold higher: 1.61 µM for the first, 0.76 µM for the second. The second is the more potent here.

Going from COc1cccc2c1C(=O)c1c(O)c3c(c(O)c1C2=O)CC(O)(C(=O)CO)CC3OC1CC(N=C(C)N2CCCC2)C(O)C(C)O1 (stereo not shown) [Derivative 52] to COc1cccc2c1C(=O)c1c(O)c3c(c(O)c1C2=O)CC(O)(C(=O)CO)CC3OC1CC(N=C(C)N2CCCCC2)C(O)C(C)O1 (stereo not shown) [Derivative 56], the IC50 rises from 0.5 µM to 3.35 µM (6.7-fold).

Compared with COc1cccc2c1C(=O)c1c(O)c3c(c(O)c1C2=O)CC(O)(C(C)=O)CC3OC1CC(N=CN2CCCC2)C(O)C(C)O1 (stereo not shown) [Derivative 69], COc1cccc2c1C(=O)c1c(O)c3c(c(O)c1C2=O)CC(O)(C(C)=O)CC3OC1CC(N=CN2CCOCC2)C(O)C(C)O1 (stereo not shown) [Derivative 71] is 2.9-fold higher in IC50: 1.08 µM for the first, 3.13 µM for the second. The first is the more potent here.

Going from COc1cccc2c1C(=O)c1c(O)c3c(c(O)c1C2=O)CC(O)(C(C)=O)CC3OC1CC(N=CN2CCN(C)CC2)C(O)C(C)O1 (stereo not shown) [Derivative 76] to COc1cccc2c1C(=O)c1c(O)c3c(c(O)c1C2=O)CC(O)(C(=O)CO)CC3OC1CC(N=CN2CCN(C)CC2)C(O)C(C)O1 (stereo not shown) [Derivative 112], the IC50 rises from 0.76 ± 0.21 µM to 1.53 µM (2-fold). The first is the more potent here.

First: COc1cccc2c1C(=O)c1c(O)c3c(c(O)c1C2=O)CC(O)(C(C)=O)CC3OC1CC(N=CN2CCN(C)CC2)C(O)C(C)O1 (stereo not shown) [Derivative 77]
Second: COc1cccc2c1C(=O)c1c(O)c3c(c(O)c1C2=O)CC(O)(C(C)=O)CC3OC1CC(N=C(C)N2CCN(C)CC2)C(O)C(C)O1 (stereo not shown) [Derivative 95]
The IC50 of the first is 8.7-fold higher: 0.78 ± 0.18 µM for the first, 0.09 ± 0.01 µM for the second.

Compared with CCN(C=NC1CC(OC2CC(O)(C(C)=O)Cc3c(O)c4c(c(O)c32)C(=O)c2c(OC)cccc2C4=O)OC(C)C1O)CC (stereo not shown) [Derivative 80], CCN(C=NC1CC(OC2CC(O)(C(=O)CO)Cc3c(O)c4c(c(O)c32)C(=O)c2c(OC)cccc2C4=O)OC(C)C1O)CC (stereo not shown) [Derivative 116] is 7.2-fold higher in IC50: 0.3 µM for the first, 2.17 µM for the second. The first is the more potent here.

CCCCN(C=NC1CC(OC2CC(O)(C(C)=O)Cc3c(O)c4c(c(O)c32)C(=O)c2c(OC)cccc2C4=O)OC(C)C1O)CCCC (stereo not shown) [Derivative 84] and CCCN(C=NC1CC(OC2CC(O)(C(=O)CO)Cc3c(O)c4c(c(O)c32)C(=O)c2c(OC)cccc2C4=O)OC(C)C1O)CCC (stereo not shown) [Derivative 118] are within 1.5-fold of each other in IC50: 2.05 µM for the first, 2.21 µM for the second.

Compared with COc1cccc2c1C(=O)c1c(O)c3c(c(O)c1C2=O)CC(O)(C(C)=O)CC3OC1CC(N=C(C)N2CCOCC2)C(O)C(C)O1 (stereo not shown) [Derivative 89], COc1cccc2c1C(=O)c1c(O)c3c(c(O)c1C2=O)CC(O)(C(C)=O)CC3OC1CC(N=C(C)N2CCCCC2)C(O)C(C)O1 (stereo not shown) [Derivative 91] is 1.7-fold lower in IC50: 0.05 µM for the first, 0.03 µM for the second.

First: COc1cccc2c1C(=O)c1c(O)c3c(c(O)c1C2=O)CC(O)(C(C)=O)CC3OC1CC(N=C(C)N2CCCCCC2)C(O)C(C)O1 (stereo not shown) [Derivative 93]
Second: COc1cccc2c1C(=O)c1c(O)c3c(c(O)c1C2=O)CC(O)(C(=O)CO)CC3OC1CC(N=C(C)N2CCCC2)C(O)C(C)O1 (stereo not shown) [Derivative 123]
The IC50 of the first is 3.2-fold higher: 0.99 µM for the first, 0.31 µM for the second. The second is the more potent here.

First: CCN(CC)C(C)=NC1CC(OC2CC(O)(C(C)=O)Cc3c(O)c4c(c(O)c32)C(=O)c2c(OC)cccc2C4=O)OC(C)C1O (stereo not shown) [Derivative 98]
Second: CCCN(CCC)C(C)=NC1CC(OC2CC(O)(C(C)=O)Cc3c(O)c4c(c(O)c32)C(=O)c2c(OC)cccc2C4=O)OC(C)C1O (stereo not shown) [Derivative 100]
The IC50 of the first is 11-fold lower: 0.18 µM for the first, 1.9 µM for the second. The first is the more potent here.

First: COc1cccc2c1C(=O)c1c(O)c3c(c(O)c1C2=O)CC(O)(C(=O)CO)CC3OC1CC(N=CN2CCOCC2)C(O)C(C)O1 (stereo not shown) [Derivative 107]
Second: COc1cccc2c1C(=O)c1c(O)c3c(c(O)c1C2=O)CC(O)(C(=O)CO)CC3OC1CC(N=CN2CCCCCC2)C(O)C(C)O1 (stereo not shown) [Derivative 111]
The IC50 of the first is 1.8-fold lower: 0.97 µM for the first, 1.72 µM for the second.

First: COc1cccc2c1C(=O)c1c(O)c3c(c(O)c1C2=O)CC(O)(C(=O)CO)CC3OC1CC(N=CN2CCc3ccccc32)C(O)C(C)O1 (stereo not shown) [Derivative 114]
Second: COc1cccc2c1C(=O)c1c(O)c3c(c(O)c1C2=O)CC(O)(C(=O)CO)CC3OC1CC(N=CN(C)C(C)c2ccccc2)C(O)C(C)O1 (stereo not shown) [Derivative 122]
The IC50 of the first is 18-fold lower: 0.14 µM for the first, 2.53 µM for the second. The first is the more potent here.
